Entries after “also recorded” stand apart in the source; their conditions may differ.
Columns and labels:
[1] = tested on: precision-cut human lung slices; test: Histamine-induced bronchoconstriction in precision-cut human lung slices, pitavastatin and isoproterenol; details: 5 μM, 24 hours
Description: The experiment was performed under serum-deprived media conditions, n=3-7 airways per group. Changes in lumen narrowing were reported as percentage changes (±SEM) of the pre-treatment state (see FIG. 13). The absolute value of lumen airway area was not statistically different between the pitavastatin and control groups at the pre-treatment state.

[2] = tested on: Rho kinase (ROCK-1) phosphorylation; test: Histamine-induced ROCK-1 phosphorylation, western blot; format: cell-based, human; details: 24 hrs; for inhibitory effect on ROCK-1 phosphorylation with mevalonate co-treatment: 1 μM with MA 200 μM
Description: (§1) Antibodies for western blot analysis against total and phospho-MLC2 were obtained from Santa Cruz Biotechnology and Cell Signaling Technology, respectively. Antibodies for pROCK1, total ROCK1, and GAPDH were obtained from Abcam. Pitavastatin was obtained from Santa Cruz Biotechnology.
Human ASM cells were treated with pitavastatin (1 μM) with or without mevalonate (MA, 200 μM) for 24 hours, then treated with histamine (10 μM) for 5 minutes.

[3] = tested on: F-actin; test: F-actin expression, immunostaining; format: cell-based, human; details: 24 hrs; for basal F-actin expression: 1 μM, FIG. 15A/15B
Description: (§2) Non-asthmatic primary human ASM cells were treated with either vehicle or pitavastatin (1 μM) for 24 hours. Cells were then immuno-stained for F-actin expression. […] Cell lysates were analyzed by western blot for total ROCK-1, total ROCK-2, total MLC-2, and phosphorylated MLC-2. As shown in FIGS. 15C and 15D, pitavastatin reduced the total expression of ROCK-1, ROCK-2, and MLC-2 (total and phosphorylated).
Non-asthmatic primary human ASM cells were co-treated with 1 μM pitavastatin (Pit), Pit with 10 μM GGPP, or Pit with 10 μM GGPP plus 100 μM MA for 24 hrs.

[4] = tested on: MLC-2; test: MLC-2 (total and phosphorylated) expression, western blot; format: cell-based, human; details: 1 μM, 24 hours
Description: as §1, §2

[5] = tested on: ASM cells; test: RealTime-Glo Annexin V Apoptosis and Necrosis assay; format: cell-based, human
Description: Lack of apoptosis: Some studies have shown that statins at high enough doses can reduce the viability of vascular smooth muscle cells, epithelial cells, and endothelial cells (S. Ghavami et al., Biochim Biophys Acta (2014) 1843(7):1259-71; T. P. Miettinen et al., Cell Rep (2015) 13(11):2610-20).
RealTime-Glo™ Annexin V Apoptosis and Necrosis assay was performed by growing ASM cells on 96-well white cell culture plate according to the manufacturer's instructions (Promega Inc). […] In this real-time annexin V binding assay, the luminescence signal was detected for apoptosis and necrosis was detected with a fluorescence signal by using a SpectraMax® plate reader. […] (20 μg/mL) was used as a positive control (FIG. 2).

[6] = tested on: ASM cells; test: Simulated deep breath (stretch-unstretch), cell mapping rheometry and CFS; format: cell-based, human; details: 1 μM, 24 hrs; for force recovery after single stretch-unstretch maneuver (stretch-induced ASM force relaxation): 10% magnitude, 4-sec stretch, recovery over 180 seconds, FIG. 12B
Description: Well-defined biaxial stretch (4 sec duration, 10% magnitude) was imposed using the method of cell mapping rheometry. The strain energy from each ASM force map was computed as a metric of average cellular contraction, and reported as fold changes to the pre-stretch baseline value.
Normal ASM was treated with pitavastatin (1 μM, 24 hrs, n=7), isoproterenol (10 μM, 30 min, n=6) or vehicle (n=7), and examined by CFS as described above. […] Shown are contraction values normalized to the untreated control group. […] The contraction force gradually recovered over 180 seconds. […] All data are reported as mean and standard error of the mean (SEM).

[7] = tested on: myosin light chain-2 (MLC-2) phosphorylation; test: Thrombin-induced MLC-2 phosphorylation, western blot; format: cell-based, human; details: 1 or 10 μM, 24 hrs; thrombin 2 U, 30 min; FIG. 5B
Description: as §1
Human ASM cells were treated with pitavastatin (1 or 10 μM) for 24 hours, then treated with thrombin (2 U, 30 min). As depicted in FIG. 5B, pitavastatin (1 or 10 μM) inhibited thrombin-induced MLC2 phosphorylation.

SMILES: O=C(O)C[C@H](O)C[C@H](O)/C=C/c1c(C2CC2)nc2ccccc2c1-c1ccc(F)cc1 [pitavastatin]
- interference with the β2-agonist effect of isoproterenol [1]: did not interfere; also recorded: does not interfere
- histamine (Hist)-induced bronchoconstriction ([1]; histamine 10 μM 15 min, serum-deprived, FIG. 13): reduced
- inhibitory effect on ROCK-1 phosphorylation with mevalonate co-treatment [2]: abrogated
- inhibitory effect on ROCK-1 phosphorylation with mevalonate co-treatment ([2]; listed as Pit): abrogates
- histamine-induced ROCK1 phosphorylation ([2]; 1 μM, histamine 10 μM, 5 min, FIG. 5A): significantly reduced; also recorded: inhibits
- reductions of F-actin expression and ASM contraction with GGPP and MA co-treatment ([3]; 1 μM Pit with 10 μM GGPP, or with 10 μM GGPP and 100 μM MA, FIG. 15B): abrogated
- basal F-actin expression [3]: significantly reduced
- basal F-actin expression ([3]; listed as Pit): reduced F-actin expression; also recorded: significantly reduced
- expression of MLC-2 (total and phosphorylated) [4]: reduced
- apoptosis and necrosis (cell death) [5]: no evidence of apoptosis or cell death
- cellular toxicity [5]: did not demonstrate any
- basal ASM contraction compared to untreated controls ([6]; FIG. 12A): significantly inhibited basal ASM contraction
- force recovery after single stretch-unstretch maneuver (stretch-induced ASM force relaxation) [6]: significantly inhibited
- force recovery after single stretch-unstretch maneuver (stretch-induced ASM force relaxation) ([6]; listed as Pitavastatin): augmented stretch-induced ASM force relaxation
- thrombin-induced MLC2 phosphorylation [7]: inhibits; also recorded: reduced MLC-2 phosphorylation
